Measured values from PubChem BioAssay (NCI).
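Results reflect a 48-hour exposure of cells in 96-well plates to compound at five concentrations. The concentration for full growth arrest is given as TGI.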

What was measured:
Assay in all cases: NCI tumour cell line growth inhibition, 48 h
M19-MEL melanoma = test system: M19-MEL melanoma
CAKI-1 renal = test system: CAKI-1 renal
SF-295 CNS = test system: SF-295 CNS
ACHN renal = test system: ACHN renal
EKVX NSCLC = test system: EKVX NSCLC
HOP-92 NSCLC = test system: HOP-92 NSCLC
HT29 colon = test system: HT29 colon
HL-60(TB) leukemia = test system: HL-60(TB) leukemia
LXFL 529 NSCLC = test system: LXFL 529 NSCLC
M14 melanoma = test system: M14 melanoma
RXF-631 renal = test system: RXF-631 renal
KM12 colon = test system: KM12 colon
MALME-3M melanoma = test system: MALME-3M melanoma
OVCAR-3 ovarian = test system: OVCAR-3 ovarian
CCRF-CEM leukemia = test system: CCRF-CEM leukemia
OVCAR-8 ovarian = test system: OVCAR-8 ovarian
UACC-257 melanoma = test system: UACC-257 melanoma
SN12C renal = test system: SN12C renal
SF-539 CNS = test system: SF-539 CNS
SK-MEL-5 melanoma = test system: SK-MEL-5 melanoma
TK-10 renal = test system: TK-10 renal
KM20L2 colon = test system: KM20L2 colon
SK-OV-3 ovarian = test system: SK-OV-3 ovarian
NCI-H226 lung = test system: NCI-H226 lung
A498 renal = test system: A498 renal
SNB-78 CNS = test system: SNB-78 CNS
SK-MEL-28 melanoma = test system: SK-MEL-28 melanoma
RXF 393 renal = test system: RXF 393 renal
IGROV1 ovarian = test system: IGROV1 ovarian
A549 NSCLC = test system: A549 NSCLC
OVCAR-4 ovarian = test system: OVCAR-4 ovarian
OVCAR-5 ovarian = test system: OVCAR-5 ovarian
NCI-H522 lung = test system: NCI-H522 lung
DMS 273 small cell lung = test system: DMS 273 small cell lung
HOP-62 NSCLC = test system: HOP-62 NSCLC
COLO 205 colon = test system: COLO 205 colon
NCI-H460 lung = test system: NCI-H460 lung
LOX IMVI melanoma = test system: LOX IMVI melanoma
SR leukemia = test system: SR leukemia
SK-MEL-2 melanoma = test system: SK-MEL-2 melanoma
NCI-H23 lung = test system: NCI-H23 lung
UACC-62 melanoma = test system: UACC-62 melanoma
HCT-15 colon = test system: HCT-15 colon
786-0 renal = test system: 786-0 renal
UO-31 renal = test system: UO-31 renal
K-562 leukemia = test system: K-562 leukemia
MOLT-4 leukemia = test system: MOLT-4 leukemia
SNB-75 CNS = test system: SNB-75 CNS
DMS 114 small cell lung = test system: DMS 114 small cell lung
SNB-19 CNS = test system: SNB-19 CNS
HCT-116 colon = test system: HCT-116 colon
DLD-1 colon = test system: DLD-1 colon
SW-620 colon = test system: SW-620 colon
U251 CNS = test system: U251 CNS
SF-268 CNS = test system: SF-268 CNS

Measured: TGI

CCOC(=O)C1C(=O)C(C(=O)OCC)C(c2ccccc2)N(C)C1c1ccccc1 (stereo not given)
> 100 µM: all assays above
